Numbered stars: 1 amine (or outer) side, 2 acyl side, 3 side chain; on linkers, the order of the positions; unused ones are H or OH. Peptide text beside a SMILES is read from it. * marks the point of attachment. C20 diacid = O=C(O)CCCCCCCCCCCCCCCCCCC(=O)*; C18 diacid = O=C(O)CCCCCCCCCCCCCCCCC(=O)*; γGlu = O=C(O)[C@H](CCC(=O)[*:2])N[*:1]
Tests used:
[1] = Solubility in 100 mM bistrispropane buffer at pH 7.0 incubated for 18 hrs by UPLC analysis; type: physicochemical
Rattus norvegicus [2] = experiment: Reduction in food intake in Sprague-Dawley rat at 3 nmol/kg measured 0 to 24 hrs post dose relative to control; type: functional; parameters: scale not given: the % may be the effect or the level left
[3] = Solubility in 100 mM glycylglycine buffer at pH 4.0 incubated for 18 hrs by UPLC analysis; type: physicochemical
Rattus norvegicus [4] = experiment: Reduction in food intake in Sprague-Dawley rat at 3 nmol/kg measured 24 to 48 hrs post dose relative to control; type: functional; parameters: scale not given: the % may be the effect or the level left
[5] = Solubility in 100 mM bistrispropane buffer at pH 6.5 incubated for 18 hrs by UPLC analysis; type: physicochemical
[6] = biological target: T1, Amylin receptor AMY3; CALCR/RAMP3 (Homo sapiens, UniProt O60896+P30988); experiment: Agonist activity at human amylin receptor expressed in BHK570 cells co-expressing RAMP3 assessed as increase in intracellular cAMP concentration incubated for 3 hrs in absence of albumin by CRE luciferase reporter gene assay; type: functional, cell-based
T1 sequence (P30988 whole entry): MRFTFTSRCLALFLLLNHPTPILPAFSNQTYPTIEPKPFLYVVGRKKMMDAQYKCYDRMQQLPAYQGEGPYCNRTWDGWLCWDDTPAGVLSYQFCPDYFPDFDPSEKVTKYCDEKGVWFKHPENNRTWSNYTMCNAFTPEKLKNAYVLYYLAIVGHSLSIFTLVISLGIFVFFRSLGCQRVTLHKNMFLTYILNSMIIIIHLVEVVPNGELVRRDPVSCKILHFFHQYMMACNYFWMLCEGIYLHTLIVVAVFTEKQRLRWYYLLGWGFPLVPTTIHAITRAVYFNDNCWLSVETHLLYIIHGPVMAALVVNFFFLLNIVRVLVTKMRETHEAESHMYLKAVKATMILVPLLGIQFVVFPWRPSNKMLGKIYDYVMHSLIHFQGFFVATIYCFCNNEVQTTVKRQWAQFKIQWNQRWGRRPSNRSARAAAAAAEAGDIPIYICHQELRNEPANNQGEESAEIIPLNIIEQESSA
T1 sequence (O60896 whole entry): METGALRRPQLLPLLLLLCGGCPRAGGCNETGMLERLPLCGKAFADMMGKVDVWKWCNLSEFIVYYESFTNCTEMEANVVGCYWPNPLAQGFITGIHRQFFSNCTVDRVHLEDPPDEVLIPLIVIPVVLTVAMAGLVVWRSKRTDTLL

[7] = Solubility in 100 mM bistrispropane buffer at pH 8.0 incubated for 18 hrs by UPLC analysis; type: physicochemical
Calcitonin receptor [8] = biological target: T2, Calcitonin receptor (Homo sapiens, UniProt P30988); experiment: Agonist activity at human calcitonin receptor expressed in BHK570 cells assessed as increase in intracellular cAMP concentration incubated for 3 hrs in absence of albumin by CRE luciferase reporter gene assay; type: functional, cell-based
T2 sequence (P30988 whole entry): T1 sequence (P30988 whole entry)

[9] = Solubility in 100 mM glycylglycine buffer at pH 3.0 incubated for 18 hrs by UPLC analysis; type: physicochemical
[10] = biological target: T1, Amylin receptor AMY3; CALCR/RAMP3; experiment: Displacement of [125I]-labeled rat amylin from human amylin receptor expressed in BHK tkts13 whole cells co-expressing RAMP3 incubated for 60 mins by scintillation proximity assay; type: cell-based
[11] = Solubility in 100 mM bistrispropane buffer at pH 7.5 incubated for 18 hrs by UPLC analysis; type: physicochemical
[12] = Solubility in 100 mM glycylglycine buffer at pH 5.0 incubated for 18 hrs by UPLC analysis; type: physicochemical
[13] = Solubility in 100 mM bistrispropane buffer at pH 6.0 incubated for 18 hrs by UPLC analysis; type: physicochemical
Calcitonin receptor [14] = biological target: T2, Calcitonin receptor; experiment: Agonist activity at human calcitonin receptor expressed in BHK570 cells assessed as increase in intracellular cAMP concentration incubated for 3 hrs in presence of 10% FBS by CRE luciferase reporter gene assay; type: functional, cell-based
[15] = biological target: T1, Amylin receptor AMY3; CALCR/RAMP3; experiment: Agonist activity at human amylin receptor expressed in BHK570 cells co-expressing RAMP3 assessed as increase in intracellular cAMP concentration incubated for 3 hrs in presence of 10% FBS by CRE luciferase reporter gene assay; type: functional, cell-based

Row | Compound | solubility at 18 h [1] [µM] | solubility at 18 h [3] [µM] | solubility at 18 h [5] [µM] | EC50 [6] [nM] | solubility at 18 h [7] [µM] | EC50 (Calcitonin receptor [8]) [nM] | solubility at 18 h [9] [µM] | IC50 [10] [nM] | solubility at 18 h [11] [µM] | solubility at 18 h [12] [µM] | solubility at 18 h [13] [µM] | EC50 (Calcitonin receptor [14]) [nM] | EC50 [15] [nM] | Activity (Rattus norvegicus [2]) [%] | Activity (Rattus norvegicus [4]) [%]
1 | CC(C)C[C@H](NC(=O)[C@H](CCC(=O)O)NC(=O)[C@H](Cc1cnc[nH]1)NC(=O)[C@H](CC(C)C)NC(=O)[C@H](CCC(=O)O)NC(=O)[C@H](C)NC(=O)[C@H](CO)NC(=O)[C@H](CC(C)C)NC(=O)[C@H](CCCNC(=N)N)NC(=O)CNC(=O)[C@H](CC(C)C)NC(=O)[C@@H](NC(=O)[C@H](C)NC(=O)[C@@H](NC(=O)[C@H](CO)NC(=O)[C@H](CC(C)C)NC(=O)[C@H](CCC(=O)O)NC(=O)[C@H](CO)NC(=O)[C@H](C)NC(=O)[C@H](CCC(=O)O)NC(=O)CCCCCCCCCCCCCCCCC(=O)O)[C@@H](C)O)C(C)C)C(=O)N[C@@H](C)C(=O)N[C@H](C(=O)N[C@@H](CC(C)C)C(=O)N1CCC[C@H]1C(=O)N1CCC[C@H]1C(=O)N[C@H](C(=O)N[C@@H](CCC(=O)O)C(=O)N[C@H](C(=O)NCC(=O)N1CCC[C@H]1C(=O)N[C@@H](CCC(=O)O)C(=O)N[C@@H](CO)C(=O)N1CCC[C@H]1C(N)=O)[C@@H](C)O)[C@@H](C)O)[C@@H](C)O ({C18 diacid}-EASELSTAVLGRLSAELHELATLPPTETGPESP-NH2) | ≥ 200 | ≥ 200 | ≥ 200 | 0.014 | ≥ 200 | 0.006 | ≥ 200 | 0.383 | ≥ 200 | ≥ 200 | ≥ 200 | – | – | 62 | 12
2 | CC(C)C[C@H](NC(=O)CNC(=O)[C@H](CO)NC(=O)[C@H](C)NC(=O)CC[C@H](NC(=O)CCCCCCCCCCCCCCCCCCC(=O)O)C(=O)O)C(=O)N[C@@H](CO)C(=O)N[C@H](C(=O)N[C@@H](C)C(=O)N[C@@H](C)C(=O)N[C@@H](CC(C)C)C(=O)NCC(=O)N[C@@H](CCCNC(=N)N)C(=O)N[C@@H](CC(C)C)C(=O)N[C@@H](CO)C(=O)N[C@@H](CCC(=O)O)C(=O)N[C@@H](CCC(=O)O)C(=O)N[C@@H](CC(C)C)C(=O)N[C@@H](Cc1cnc[nH]1)C(=O)N[C@@H](CCC(=O)O)C(=O)N[C@@H](CC(C)C)C(=O)N[C@@H](CCC(N)=O)C(=O)N[C@H](C(=O)N[C@@H](Cc1ccc(O)cc1)C(=O)N1CCC[C@H]1C(=O)N[C@@H](CCCNC(=N)N)C(=O)N[C@H](C(=O)N[C@@H](CCC(=O)O)C(=O)N[C@H](C(=O)NCC(=O)N[C@@H](CO)C(=O)NCC(=O)N[C@H](C(=O)N[C@@H](Cc1ccc(O)cc1)C(N)=O)[C@@H](C)O)[C@@H](C)O)[C@@H](C)O)[C@@H](C)O)[C@@H](C)O ({C20 diacid-γGlu}-ASGLSTAALGRLSEELHELQTYPRTETGSGTY-NH2) | ≥ 200 | – | ≥ 200 | 0.036 | ≥ 200 | 0.021 | ≥ 200 | – | ≥ 200 | – | ≥ 200 | 0.057 | 0.159 | 21 | 6

Continued, in another order:

Row | solubility at 18 h [1] [µM] | solubility at 18 h [3] [µM] | solubility at 18 h [5] [µM] | EC50 [6] [nM] | solubility at 18 h [7] [µM] | EC50 (Calcitonin receptor [8]) [nM] | solubility at 18 h [9] [µM] | IC50 [10] [nM] | solubility at 18 h [11] [µM] | solubility at 18 h [12] [µM] | solubility at 18 h [13] [µM] | EC50 (Calcitonin receptor [14]) [nM] | EC50 [15] [nM] | Compound | Activity (Rattus norvegicus [2]) [%] | Activity (Rattus norvegicus [4]) [%]
3 | ≥ 200 | ≥ 200 | ≥ 200 | 0.004 | ≥ 200 | 0.003 | ≥ 200 | 0.329 | ≥ 200 | ≥ 200 | ≥ 200 | – | – | CC(C)C[C@H](NC(=O)[C@H](C)NC(=O)[C@H](C)NC(=O)[C@@H](NC(=O)[C@H](CO)NC(=O)[C@H](CC(C)C)NC(=O)[C@H](CCC(=O)O)NC(=O)[C@H](CO)NC(=O)[C@H](C)NC(=O)[C@H](CCC(=O)O)NC(=O)CCCCCCCCCCCCCCCCC(=O)O)[C@@H](C)O)C(=O)NCC(=O)N[C@@H](CCCNC(=N)N)C(=O)N[C@@H](CC(C)C)C(=O)N[C@@H](CO)C(=O)N[C@@H](C)C(=O)N[C@@H](CCC(=O)O)C(=O)N[C@@H](CC(C)C)C(=O)N[C@@H](C)C(=O)N[C@@H](CCC(=O)O)C(=O)N[C@@H](CC(C)C)C(=O)N[C@@H](C)C(=O)N[C@H](C(=O)N[C@@H](CC(C)C)C(=O)N1CCC[C@H]1C(=O)N[C@@H](CCCNC(=N)N)C(=O)N[C@H](C(=O)N[C@@H](CCC(=O)O)C(=O)N[C@H](C(=O)NCC(=O)N1CCC[C@H]1C(=O)N[C@@H](CCC(=O)O)C(=O)N[C@@H](CO)C(=O)N1CCC[C@H]1C(N)=O)[C@@H](C)O)[C@@H](C)O)[C@@H](C)O ({C18 diacid}-EASELSTAALGRLSAELAELATLPRTETGPESP-NH2) | 70 | 18
4 | ≥ 200 | ≥ 200 | ≥ 200 | 0.012 | ≥ 200 | 0.009 | ≥ 200 | 0.796 | ≥ 200 | ≥ 200 | ≥ 200 | – | – | CC(C)C[C@H](NC(=O)[C@H](CCC(=O)O)NC(=O)[C@H](Cc1cnc[nH]1)NC(=O)[C@H](CC(C)C)NC(=O)[C@H](CCC(=O)O)NC(=O)[C@H](C)NC(=O)[C@H](CO)NC(=O)[C@H](CC(C)C)NC(=O)[C@H](CCCNC(=N)N)NC(=O)CNC(=O)[C@H](CC(C)C)NC(=O)[C@@H](NC(=O)[C@H](C)NC(=O)[C@@H](NC(=O)[C@H](CO)NC(=O)[C@H](CC(C)C)NC(=O)[C@H](CCC(=O)O)NC(=O)[C@H](CO)NC(=O)[C@H](C)NC(=O)[C@H](CCC(=O)O)NC(=O)CCCCCCCCCCCCCCCCC(=O)O)[C@@H](C)O)C(C)C)C(=O)N[C@@H](C)C(=O)N[C@H](C(=O)N[C@@H](CC(C)C)C(=O)N1CCC[C@H]1C(=O)N[C@@H](CCCNC(=N)N)C(=O)N[C@H](C(=O)N[C@@H](CCC(=O)O)C(=O)N[C@H](C(=O)NCC(=O)N1CCC[C@H]1C(=O)N[C@@H](CCC(=O)O)C(=O)N[C@@H](CO)C(=O)N1CCC[C@H]1C(N)=O)[C@@H](C)O)[C@@H](C)O)[C@@H](C)O ({C18 diacid}-EASELSTAVLGRLSAELHELATLPRTETGPESP-NH2) | 58.5 | 39
5 | ≥ 200 | ≥ 200 | ≥ 200 | 0.008 | ≥ 200 | 0.007 | ≥ 200 | 0.375 | ≥ 200 | ≥ 200 | ≥ 200 | – | – | CC(C)C[C@H](NC(=O)[C@H](CCC(=O)O)NC(=O)[C@H](Cc1cnc[nH]1)NC(=O)[C@H](CC(C)C)NC(=O)[C@H](CCC(=O)O)NC(=O)[C@H](C)NC(=O)[C@H](CO)NC(=O)[C@H](CC(C)C)NC(=O)[C@H](CCCNC(=N)N)NC(=O)CNC(=O)[C@H](CC(C)C)NC(=O)[C@@H](NC(=O)[C@H](C)NC(=O)[C@@H](NC(=O)[C@H](CO)NC(=O)[C@H](CC(C)C)NC(=O)[C@H](CCC(=O)O)NC(=O)[C@H](CO)NC(=O)[C@@H]1CCCN1C(=O)[C@H](CCC(=O)O)NC(=O)CCCCCCCCCCCCCCCCC(=O)O)[C@@H](C)O)C(C)C)C(=O)N[C@@H](C)C(=O)N[C@H](C(=O)N[C@@H](CC(C)C)C(=O)N1CCC[C@H]1C(=O)N[C@@H](CCCNC(=N)N)C(=O)N[C@H](C(=O)N[C@@H](CCC(=O)O)C(=O)N[C@H](C(=O)NCC(=O)N1CCC[C@H]1C(=O)N[C@@H](CCC(=O)O)C(=O)N[C@@H](CO)C(=O)N1CCC[C@H]1C(N)=O)[C@@H](C)O)[C@@H](C)O)[C@@H](C)O ({C18 diacid}-EPSELSTAVLGRLSAELHELATLPRTETGPESP-NH2) | 84 | 77

From ChEMBL document CHEMBL4420076, “Amylin and calcitonin receptor agonist” (2017)
